Test results from patent US6794516B2, “Synthesis of clasto-lactacystin β-lactone and analogs thereof” (Millennium Pharmaceuticals, Inc., priority 1997, dated 2004).
“Also recorded” adds a separate entry of the source.

Key:
[1] = target: T1, PA28-activated 20S proteasome (Homo sapiens, UniProt P28074); assay: Inactivation of the chymotrypsin-like activity of PA28-activated 20S proteasome (Suc-Leu-Leu-Val-Tyr-AMC); assay type: biochemical; conditions: for kinact/KI: rate of enzyme inactivation, chymotrypsin-like activity of PA28-activated 20S proteasome, 37° C., pH 8.0, read-out: Kobs/[I]
T1 construct: from tissue
Experimental: Purification of 20S proteasome and proteasome activator PA28 was performed as previously described (Dick et al., J. Biol. Chem. 271:7273 (1996)).
2 mL of assay buffer (20 mM HEPES, 0.5 mM EDTA, pH 8.0) and Suc-Leu-Leu-Val-Tyr-AMC in dimethyl sulfoxide were added to a 3 mL fluorescent cuvette, and the cuvette was placed in the jacketed cell holder of a Hitachi F-2000 fluorescence spectrophotometer. The temperature was maintained at 37° C. by a circulating water bath. 0.34 mg of PA28 were added and the reaction progress was monitored by the increase in fluorescence at 440 nm (λex=380 nm) that accompanies production of free AMC. […] After reaching a steady state of substrate hydrolysis, lactacystin was added to a final concentration of […], and the reaction was monitored for 1 h. The fluorescence (F) versus time (t) data were collected on a microcomputer using LAB CALC (Galactic) software. kinact values were estimated by a nonlinear least-squares fit of the data to the first order equation:
where C=Ft=0 and A=Ft=∞−Ft=0.

[2] = tested on: C2C12 cells; assay: Inhibition of intracellular protein degradation in C2C12 cells; assay type: cell-based, mouse; conditions: for IC50: Mus musculus, C2C12 cells, 35S-methionine labelled, TCA soluble radioactivity
Experimental: C2C12 cells (a mouse myoblast line) were labeled for 48 hrs with ^35S-methionine. The cells were then washed and preincubated for 2 hrs in the same media supplemented with 2 mM unlabelled methionine. The media was removed and replaced with a fresh aliquot of the preincubation media containing 50% serum, and a concentration of the compound to be tested. The media was then removed and made up to 10% TCA and centrifuged. The TCA soluble radioactivity was counted. Inhibition of proteolysis was calculated as the percent decrease in TCA soluble radioactivity.

[3] = Lactone hydrolysis to the dihydroxy acid; conditions: for half-life at 200 mM: HEPES/EDTA buffer, pH 7.8
Experimental: (§1) The half-lives (ti1/2) for hydrolysis of β-lactone analogs to the corresponding dihydroxy acids were measured at 37° C. at a concentration of 200 mM in 20 mM HEPES, 0.5 mM EDTA, pH 7.8. Absorbance was measured for at least five half-lives (approximately 1 hour) at 230 nm, the wavelength at which there is the greatest difference in extinction coefficients for the lactone and dihydroxy.

[4] = tested on: Male Sprague Dawley rats; assay: Middle cerebral artery (MCA) occlusion/reperfusion: infarct size and neurological score; assay type: in vivo, rat; conditions: for infarct volume: rat MCA occlusion
Experimental: Male Sprague Dawley rats (250-400 g) were anesthetized with haloethane and subjected to middle cerebral artery (MCA) occlusion using a nylon filament for 2 h. Subsequently, the filament was removed and reperfusion of the infarcted tissue occurred for 24 hours before the rat was sacrificed.
Immediately after the filament was withdrawn, the animals were evaluated using a neurological scoring system. Neurological scores were expressed on a scale from 0 to 10, with 0 representing no neurological deficit and 10 representing severe neurological deficit. After 24 hours and before sacrifice, animals were evaluated a second time using the same neurological scoring system.
Staining of coronal sections (2.0 mm×7-8) with triphenyltetrazolium chloride (TTC) taken throughout the brain were evaluated under blinded conditions using image analysis to determine infarct size.
Rats were given i.v. bolus injections (1.0 mL/kg) of either vehicle (50% propylene glycol/saline; n=8) or 7-n-propyl-clasto-lactacystin β-lactone (3b) (0.3 mg/kg; n=7) at 2 hours after the start of the occlusion. Two additional groups of rats were given i.v. bolus injections (1.0 mL/kg) of 3b at 0 minutes, 2 hours, and 6 hours after the start of the occlusion. One group (0.1 mg/kg×3; n=6) received 0.1 mg/kg at each of these times, while another group (0.3 mg/kg×3; n=7) received 0.3 mg/kg at each of the three timepoints.

[5] = physchem; conditions: buffer, pH 7.8
Experimental: as §1

| Structure (SMILES) | kinact/KI [1] [M⁻¹ s⁻¹] | IC50 [2] [nM] | half-life at 200 mM [3] [min] | other results |
| --- | --- | --- | --- | --- |
| CCCC[C@H]1C(=O)N[C@@]2([C@@H](O)C(C)C)C(=O)O[C@@H]12 [Compound 3c] | 38000 | 330 | 17 | – |
| CC(C)C[C@H]1C(=O)N[C@@]2([C@@H](O)C(C)C)C(=O)O[C@@H]12 [Compound 3d] | 17000 | 510 | 16.8 | – |
| CCC[C@H]1C(=O)N[C@@]2([C@@H](O)C(C)C)C(=O)O[C@@H]12 [Compound 3b, 7-n-propyl-clasto-lactacystin β-lactone] | 46500 | 290 | 15.3 | neurological score ([4]; i.v. 0.1 mg/kg×3 dosage group): No significant improvement; neurological score ([4]; i.v. 0.3 mg/kg×3 dosage group): No significant improvement; infarct volume decreased by ([4]; rat MCA occlusion 2 h, reperfusion 24 h, single i.v. dose 0.3 mg/kg at 2 hours after start of occlusion): 50%; infarct volume ([4]; i.v. 0.1 mg/kg×3 (0 minutes, 2 hours, 6 hours)): not significantly decreased; infarct volume ([4]; i.v. 0.3 mg/kg×3 (0 minutes, 2 hours, 6 hours)): not significantly decreased; mean neurological score at 24 hours ([4]; scale 0 to 10 (10 = severe deficit), single i.v. 0.3 mg/kg dose, vehicle 8.7±0.6): 4±1; neurological improvement ([4]; single i.v. 0.3 mg/kg dose, versus vehicle at 24 hours): 60% |
| CC[C@H]1C(=O)N[C@@]2([C@@H](O)C(C)C)C(=O)O[C@@H]12 [Compound 3a] | 39000 | 320 | 15.3 | – |
| CC(C)[C@H](O)[C@@]12NC(=O)[C@H](C)[C@@H]1OC2=O [Compound 2, clasto-lactacystin β-lactone] | 20000 | 700 to 1100 | – | half-life at 200 mM [5]: 13 min |
| CO[C@H]1C(=O)N[C@@]2([C@@H](O)C(C)C)C(=O)O[C@@H]12 [Compound 3f] | 82200 | 86000 | 3.7 | relative potency in the enzyme assay ([1]; compared to the other compounds of Table 1 / to 2): most potent; relative potency in cell culture ([2]; compared to 2): less potent than 2; also recorded: much weaker activity; relative hydrolysis rate ([3]; compared to 2): more rapidly hydrolyzed |
